Measurements taken from US12258327B2, “5-membered heteroaryl-containing aminopyridine compounds as EGFR inhibitors” (YUHAN CORPORATION, priority 2021, dated 2025).
Like-named read-outs stand apart in the source and are kept apart here.

How the values were obtained:
EGFR L858R/C797S = EGFR L858R/C797S (Homo sapiens, UniProt P00533, C797S/L858R); experiment: Biochemical EGFR kinase assay (Lance Ultra TR-FRET), double mutant L858R/C797S
Procedure, shortened: (§1)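 In this biochemical assay, phosphorylation after a one-hour room-temperature reaction was detected with europium-labelled anti-phosphopeptide antibody at 2 nM final concentration.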

EGFR del19/C797S = EGFR del19/C797S (Homo sapiens, UniProt P00533, C797S/DEL746-750); experiment: Biochemical EGFR kinase assay (Lance Ultra TR-FRET), double mutant del19/C797S
Procedure, shortened: as §1

EGFR L858R/T790M/C797S = EGFR L858R/T790M/C797S (Homo sapiens, UniProt P00533, C797S/L858R/T790M); experiment: Biochemical EGFR kinase assay (Lance Ultra TR-FRET), triple mutant L858R/T790M/C797S
Procedure, shortened: as §1

EGFR del19/T790M/C797S = EGFR del19/T790M/C797S (Homo sapiens, UniProt P00533, C797S/DEL746-750/T790M); experiment: Biochemical EGFR kinase assay (Lance Ultra TR-FRET), triple mutant del19/T790M/C797S
Procedure, shortened: as §1

EGFR wildtype (WT) = EGFR wildtype (WT) (Homo sapiens, UniProt P00533); experiment: Biochemical EGFR kinase assay (Lance Ultra TR-FRET), wildtype
Procedure, shortened: as §1

[1] = IC50 L858R/C797S (nM) 100 μM ATP, 100 μM ATP
[2] = IC50 del19/C797S (nM) 100 μM ATP, 100 μM ATP
[3] = IC50 L858R/T790M/C797S (nM) 100 μM ATP, 100 μM ATP
[4] = IC50 del19/T790M/C797S (nM) 100 μM ATP, 100 μM ATP
[5] = IC50 WT (nM) 100 μM ATP, 100 μM ATP
[6] = Km ATP, read-out: IC50 WT (nM) Km ATP
[7] = Km ATP, read-out: IC50 L858R/C797S (nM) Km ATP
[8] = Km ATP, read-out: IC50 del19/C797S (nM) Km ATP
[9] = Km ATP, read-out: IC50 L858R/T790M/C797S (nM) Km ATP
[10] = Km ATP, read-out: IC50 del19/T790M/C797S (nM) Km ATP

Sequence of EGFR del19/C797S (P00533 with tags, fused parts or gaps DEL746-750/C797S): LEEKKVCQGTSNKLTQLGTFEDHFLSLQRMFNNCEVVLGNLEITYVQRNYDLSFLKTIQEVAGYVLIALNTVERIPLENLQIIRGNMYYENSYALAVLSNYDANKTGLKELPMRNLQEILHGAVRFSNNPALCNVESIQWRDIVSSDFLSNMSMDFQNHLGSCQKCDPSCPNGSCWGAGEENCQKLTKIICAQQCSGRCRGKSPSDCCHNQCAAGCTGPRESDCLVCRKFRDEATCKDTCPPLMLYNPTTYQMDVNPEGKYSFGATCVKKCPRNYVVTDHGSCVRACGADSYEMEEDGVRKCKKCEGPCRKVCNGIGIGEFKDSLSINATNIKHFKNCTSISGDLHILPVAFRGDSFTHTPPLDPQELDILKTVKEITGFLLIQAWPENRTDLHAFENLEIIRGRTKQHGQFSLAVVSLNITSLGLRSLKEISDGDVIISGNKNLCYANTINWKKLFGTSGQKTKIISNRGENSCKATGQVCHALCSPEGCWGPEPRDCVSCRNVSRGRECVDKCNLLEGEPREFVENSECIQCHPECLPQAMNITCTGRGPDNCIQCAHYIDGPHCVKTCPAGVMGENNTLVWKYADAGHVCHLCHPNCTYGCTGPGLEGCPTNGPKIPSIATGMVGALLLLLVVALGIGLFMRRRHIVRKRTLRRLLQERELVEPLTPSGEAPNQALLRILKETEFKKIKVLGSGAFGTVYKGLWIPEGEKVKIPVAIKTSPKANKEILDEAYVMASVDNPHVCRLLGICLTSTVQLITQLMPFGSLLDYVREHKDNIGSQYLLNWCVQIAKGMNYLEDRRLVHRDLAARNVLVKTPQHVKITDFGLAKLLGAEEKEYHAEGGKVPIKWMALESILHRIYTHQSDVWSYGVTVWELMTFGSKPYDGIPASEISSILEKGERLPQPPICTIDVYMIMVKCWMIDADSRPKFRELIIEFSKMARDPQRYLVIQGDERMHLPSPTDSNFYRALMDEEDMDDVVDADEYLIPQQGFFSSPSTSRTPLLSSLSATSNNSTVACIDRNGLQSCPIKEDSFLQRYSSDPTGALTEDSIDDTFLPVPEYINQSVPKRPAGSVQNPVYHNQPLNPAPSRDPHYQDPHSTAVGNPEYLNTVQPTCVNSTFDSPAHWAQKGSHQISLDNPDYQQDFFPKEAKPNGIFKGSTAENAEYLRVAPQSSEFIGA
Sequence of EGFR L858R/T790M/C797S (P00533 25-1210 T790M/C797S/L858R): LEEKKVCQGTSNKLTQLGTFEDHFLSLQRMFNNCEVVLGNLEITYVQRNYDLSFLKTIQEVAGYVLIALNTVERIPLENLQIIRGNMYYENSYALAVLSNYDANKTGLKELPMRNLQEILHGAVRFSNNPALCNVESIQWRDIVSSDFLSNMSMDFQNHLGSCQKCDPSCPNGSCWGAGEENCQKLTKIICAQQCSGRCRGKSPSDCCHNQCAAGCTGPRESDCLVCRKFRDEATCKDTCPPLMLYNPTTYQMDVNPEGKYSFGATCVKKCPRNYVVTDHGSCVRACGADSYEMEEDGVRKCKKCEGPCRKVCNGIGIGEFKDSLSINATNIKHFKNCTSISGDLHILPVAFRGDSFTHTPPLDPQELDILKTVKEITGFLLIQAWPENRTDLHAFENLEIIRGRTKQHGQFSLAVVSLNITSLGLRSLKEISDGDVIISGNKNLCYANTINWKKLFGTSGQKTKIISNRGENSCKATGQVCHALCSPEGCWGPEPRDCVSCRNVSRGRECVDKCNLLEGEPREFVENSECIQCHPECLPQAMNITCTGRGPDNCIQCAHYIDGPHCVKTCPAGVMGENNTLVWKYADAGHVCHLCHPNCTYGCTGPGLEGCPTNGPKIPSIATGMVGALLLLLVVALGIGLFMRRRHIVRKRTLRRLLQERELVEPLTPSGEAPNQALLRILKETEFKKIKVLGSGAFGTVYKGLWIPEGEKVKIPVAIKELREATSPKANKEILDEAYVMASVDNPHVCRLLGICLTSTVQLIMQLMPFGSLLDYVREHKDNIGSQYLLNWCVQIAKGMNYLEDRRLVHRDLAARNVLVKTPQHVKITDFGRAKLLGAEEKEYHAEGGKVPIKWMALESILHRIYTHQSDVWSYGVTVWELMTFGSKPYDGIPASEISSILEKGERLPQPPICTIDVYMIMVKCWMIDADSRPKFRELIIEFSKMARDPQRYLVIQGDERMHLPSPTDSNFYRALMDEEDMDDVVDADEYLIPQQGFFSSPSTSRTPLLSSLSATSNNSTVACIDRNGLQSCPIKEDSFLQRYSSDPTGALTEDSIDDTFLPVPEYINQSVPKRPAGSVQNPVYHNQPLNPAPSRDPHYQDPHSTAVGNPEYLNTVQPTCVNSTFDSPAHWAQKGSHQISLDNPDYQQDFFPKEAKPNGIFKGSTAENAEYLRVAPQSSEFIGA
Sequence of EGFR L858R/C797S (P00533 25-1210 C797S/L858R): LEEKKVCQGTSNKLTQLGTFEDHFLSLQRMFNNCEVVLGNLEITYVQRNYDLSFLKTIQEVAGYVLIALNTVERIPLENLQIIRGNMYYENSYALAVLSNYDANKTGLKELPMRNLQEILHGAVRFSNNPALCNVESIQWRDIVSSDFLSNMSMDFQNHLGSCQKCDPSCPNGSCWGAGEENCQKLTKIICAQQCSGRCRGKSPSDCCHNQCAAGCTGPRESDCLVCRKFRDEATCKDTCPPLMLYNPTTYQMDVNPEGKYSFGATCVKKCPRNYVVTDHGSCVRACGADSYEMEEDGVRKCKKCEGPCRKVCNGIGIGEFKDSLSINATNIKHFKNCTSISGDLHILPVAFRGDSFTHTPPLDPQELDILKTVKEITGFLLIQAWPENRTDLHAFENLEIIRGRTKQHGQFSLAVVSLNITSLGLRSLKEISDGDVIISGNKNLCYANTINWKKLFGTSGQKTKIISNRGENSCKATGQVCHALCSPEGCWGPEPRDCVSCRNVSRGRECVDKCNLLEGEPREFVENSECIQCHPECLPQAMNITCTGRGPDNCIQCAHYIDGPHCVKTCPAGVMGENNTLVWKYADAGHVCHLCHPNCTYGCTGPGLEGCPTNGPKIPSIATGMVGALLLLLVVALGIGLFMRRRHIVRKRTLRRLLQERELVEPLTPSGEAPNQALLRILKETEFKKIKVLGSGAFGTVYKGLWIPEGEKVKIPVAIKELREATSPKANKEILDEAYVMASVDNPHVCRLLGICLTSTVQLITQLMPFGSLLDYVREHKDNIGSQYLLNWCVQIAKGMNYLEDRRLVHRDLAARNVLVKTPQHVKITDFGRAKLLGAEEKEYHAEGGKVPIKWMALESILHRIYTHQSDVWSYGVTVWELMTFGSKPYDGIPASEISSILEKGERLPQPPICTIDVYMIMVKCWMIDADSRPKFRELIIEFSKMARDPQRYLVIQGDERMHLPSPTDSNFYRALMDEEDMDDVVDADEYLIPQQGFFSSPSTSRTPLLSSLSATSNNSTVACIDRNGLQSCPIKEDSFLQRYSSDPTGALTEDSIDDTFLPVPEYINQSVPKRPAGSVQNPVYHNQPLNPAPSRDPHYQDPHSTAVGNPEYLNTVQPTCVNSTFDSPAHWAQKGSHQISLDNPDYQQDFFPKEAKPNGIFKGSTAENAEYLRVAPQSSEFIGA
Sequence of EGFR wildtype (WT) (P00533 25-1210): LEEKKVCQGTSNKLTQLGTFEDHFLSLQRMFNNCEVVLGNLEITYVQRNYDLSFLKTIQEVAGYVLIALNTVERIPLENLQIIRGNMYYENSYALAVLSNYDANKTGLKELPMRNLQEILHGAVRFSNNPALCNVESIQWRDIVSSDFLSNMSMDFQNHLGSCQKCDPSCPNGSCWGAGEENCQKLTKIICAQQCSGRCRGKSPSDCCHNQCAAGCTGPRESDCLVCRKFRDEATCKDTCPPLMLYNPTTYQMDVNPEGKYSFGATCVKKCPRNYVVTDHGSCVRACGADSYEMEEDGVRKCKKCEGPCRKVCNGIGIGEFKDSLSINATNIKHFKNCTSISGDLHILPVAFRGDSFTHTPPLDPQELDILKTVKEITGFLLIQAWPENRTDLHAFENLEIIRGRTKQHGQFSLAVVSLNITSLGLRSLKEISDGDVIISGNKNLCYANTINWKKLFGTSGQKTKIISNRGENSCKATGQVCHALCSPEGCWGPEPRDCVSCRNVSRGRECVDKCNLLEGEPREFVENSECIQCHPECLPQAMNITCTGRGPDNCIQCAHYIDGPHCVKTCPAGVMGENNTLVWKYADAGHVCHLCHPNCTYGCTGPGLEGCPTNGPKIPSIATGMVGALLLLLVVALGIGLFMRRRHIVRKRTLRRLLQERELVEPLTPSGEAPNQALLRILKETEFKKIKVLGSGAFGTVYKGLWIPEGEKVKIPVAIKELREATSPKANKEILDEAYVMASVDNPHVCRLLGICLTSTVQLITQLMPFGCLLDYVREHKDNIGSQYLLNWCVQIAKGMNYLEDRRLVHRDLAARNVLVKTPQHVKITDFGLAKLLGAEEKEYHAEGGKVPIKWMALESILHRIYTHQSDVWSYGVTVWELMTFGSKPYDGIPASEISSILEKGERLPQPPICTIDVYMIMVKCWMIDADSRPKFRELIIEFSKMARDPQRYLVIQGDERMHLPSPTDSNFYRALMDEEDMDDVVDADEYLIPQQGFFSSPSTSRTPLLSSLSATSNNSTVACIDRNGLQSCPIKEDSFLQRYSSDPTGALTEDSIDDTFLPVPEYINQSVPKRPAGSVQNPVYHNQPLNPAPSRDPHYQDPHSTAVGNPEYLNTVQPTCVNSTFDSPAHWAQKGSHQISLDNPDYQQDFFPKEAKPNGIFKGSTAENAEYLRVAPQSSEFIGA

IC50 (EGFR L858R/C797S; [1]) [nM] | IC50 (EGFR del19/C797S; [2]) [nM] | IC50 (EGFR L858R/T790M/C797S; [3]) [nM] | IC50 (EGFR del19/T790M/C797S; [4]) [nM] | IC50 (EGFR wildtype (WT); [5]) [nM] | IC50 (EGFR wildtype (WT); [6]) [nM] | IC50 (EGFR L858R/C797S; [7]) [nM] | IC50 (EGFR del19/C797S; [8]) [nM] | IC50 (EGFR L858R/T790M/C797S; [9]) [nM] | IC50 (EGFR del19/T790M/C797S; [10]) [nM] | IC50 (EGFR L858R/C797S; Km ATP, read-out: IC50 L858R/C797S, Km ATP) [nM] | IC50 (EGFR del19/C797S; Km ATP, read-out: IC50 del19/C797S, Km ATP) [nM] | IC50 (EGFR L858R/T790M/C797S; Km ATP, read-out: IC50 L858R/T790M/C797S, Km ATP) [nM] | IC50 (EGFR del19/T790M/C797S; Km ATP, read-out: IC50 del19/T790M/C797S, Km ATP) [nM] | IC50 (EGFR wildtype (WT); Km ATP, read-out: IC50 WT, Km ATP) [nM] | SMILES
37.5 | 114 | 33.8 | 17.6 | > 10000 | 486 |  |  |  |  |  |  |  |  |  | CC(C)(O)Cn1cc(-c2nccc(Nc3cc(N[C@H]4CC[C@@](C)(O)CC4)c(-c4ccn(C(F)F)n4)cn3)n2)cn1 [Example 142, (1s,4s)-4-((5-(1-(Difluoromethyl)-1H-pyrazol-3-yl)-2-((2-(1-(2-hydroxy-2-methylpropyl)-1H-pyrazol-4-yl)pyrimidin-4-yl)amino)pyridin-4-yl)amino)-1-methylcyclohexan-1-ol]
 |  |  |  |  | 77.2 | 5 | 27.6 | 0.7 | 0.6 |  |  |  |  |  | C=CCn1cc(-c2nccc(Nc3cc(N[C@H]4CC[C@@](C)(O)CC4)c(-c4ccn(C(F)F)n4)cn3)n2)cn1 [Example 116, (1s,4s)-4-((2-((2-(1-Allyl-1H-pyrazol-4-yl)pyrimidin-4-yl)amino)-5-(1-(difluoromethyl)-1H-pyrazol-3-yl)pyridin-4-yl)amino)-1-methylcyclohexan-1-ol]
17.8 | 6.6 | 1.4 | 1.3 | > 10000 | 10.6 | 2.7 | 1.4 | 0.5 | 1.1 |  |  |  |  |  | O=S(=O)(C1CC1)n1cc(-c2nccc(Nc3cc(N[C@H]4CCC[C@H](CO)C4)c(-c4ccn(C(F)F)n4)cn3)n2)cn1 [Example 202, ((1S,3S)-3-((2-((2-(1-(Cyclopropylsulfonyl)-1H-pyrazol-4-yl)pyrimidin-4-yl)amino)-5-(1-(difluoromethyl)-1H-pyrazol-3-yl)pyridin-4-yl)amino)cyclohexyl)methanol]
8.7 | 122 | 1.4 | 1.4 | > 10000 | 50.1 | 4.6 | 10.3 | 0.5 | 0.6 |  |  |  |  |  | O=S(=O)(C1CC1)n1cc(-c2nccc(Nc3cc(N[C@H]4CCC[C@H](CO)C4)c(-c4ccn(CC(F)(F)F)n4)cn3)n2)cn1 [Example 271, ((1S,3S)-3-((2-((2-(1-(Cyclopropylsulfonyl)-1H-pyrazol-4-yl)pyrimidin-4-yl)amino)-5-(1-(2,2,2-trifluoroethyl)-1H-pyrazol-3-yl)pyridin-4-yl)amino)cyclohexyl)methanol]
 |  |  |  |  | 56.1 | 4.4 | 63.8 | 0.9 | 0.9 |  |  |  |  |  | CCC(C)Nc1cc(Nc2ccnc(-c3cnn(S(=O)(=O)C4CC4)c3)n2)ncc1-c1ccn(CC(F)F)n1 (stereo not drawn) [Example 250, N^4-(sec-Butyl)-N^2-(2-(1-(cyclopropylsulfonyl)-1H-pyrazol-4-yl)pyrimidin-4-yl)-5-(1-(2,2-difluoroethyl)-1H-pyrazol-3-yl)pyridine-2,4-diamine]
 |  |  |  |  | 87.1 | 59.5 | 51.5 | 3.8 | 11 |  |  |  |  |  | O=S(=O)(C1CC1)n1cc(-c2nccc(Nc3cc(N[C@H]4CC[C@@H](CC(F)F)CC4)c(-c4ccn(C(F)F)n4)cn3)n2)cn1 [Example 185, N^2-(2-(1-(Cyclopropylsulfonyl)-1H-pyrazol-4-yl)pyrimidin-4-yl)-N^4-((1s,4s)-4-(2,2-difluoroethyl)cyclohexyl)-5-(1-(difluoromethyl)-1H-pyrazol-3-yl)pyridine-2,4-diamine]
 |  |  |  |  | 8630 | 21.4 | 134 | 0.5 | 0.8 |  |  |  |  |  | O=S(=O)(C1CC1)n1cc(-c2nccc(Nc3cc(NC4CCN(CC(F)F)CC4)c(-c4ccn(C(F)F)n4)cn3)n2)cn1 [Example 219, N^2-(2-(1-(Cyclopropylsulfonyl)-1H-pyrazol-4-yl)pyrimidin-4-yl)-N^4-(1-(2,2-difluoroethyl)piperidin-4-yl)-5-(1-(difluoromethyl)-1H-pyrazol-3-yl)pyridine-2,4-diamine]
182 | 24.8 | 2.5 | 0.5 | > 10000 | 60.7 | 9.1 | 23.7 | 0.3 | 0.5 |  |  |  |  |  | O=C1NCCCC1Nc1cc(Nc2ccnc(-c3cnn(S(=O)(=O)C4CC4)c3)n2)ncc1-c1ccn(C(F)F)n1 (stereo not drawn) [Example 38, 3-((2-((2-(1-(Cyclopropylsulfonyl)-1H-pyrazol-4-yl)pyrimidin-4-yl)amino)-5-(1-(difluoromethyl)-1H-pyrazol-3-yl)pyridin-4-yl)amino)piperidin-2-one]
 |  |  |  |  | 286 | 4.8 | 14.7 | 0.3 | 0.5 |  |  |  |  |  | CC(C)Nc1cc(Nc2ccnc(-c3cnn(S(=O)(=O)C4CC4)c3)n2)ncc1-c1ccn(CC(F)F)n1 [Example 248, N^2-(2-(1-(Cyclopropylsulfonyl)-1H-pyrazol-4-yl)pyrimidin-4-yl)-5-(1-(2,2-difluoroethyl)-1H-pyrazol-3-yl)-N^4-isopropylpyridine-2,4-diamine]

More lines, now with the values behind:

SMILES | IC50 (EGFR L858R/C797S; [1]) [nM] | IC50 (EGFR del19/C797S; [2]) [nM] | IC50 (EGFR L858R/T790M/C797S; [3]) [nM] | IC50 (EGFR del19/T790M/C797S; [4]) [nM] | IC50 (EGFR wildtype (WT); [5]) [nM] | IC50 (EGFR wildtype (WT); [6]) [nM] | IC50 (EGFR L858R/C797S; [7]) [nM] | IC50 (EGFR del19/C797S; [8]) [nM] | IC50 (EGFR L858R/T790M/C797S; [9]) [nM] | IC50 (EGFR del19/T790M/C797S; [10]) [nM] | IC50 (EGFR L858R/C797S; Km ATP, read-out: IC50 L858R/C797S, Km ATP) [nM] | IC50 (EGFR del19/C797S; Km ATP, read-out: IC50 del19/C797S, Km ATP) [nM] | IC50 (EGFR L858R/T790M/C797S; Km ATP, read-out: IC50 L858R/T790M/C797S, Km ATP) [nM] | IC50 (EGFR del19/T790M/C797S; Km ATP, read-out: IC50 del19/T790M/C797S, Km ATP) [nM] | IC50 (EGFR wildtype (WT); Km ATP, read-out: IC50 WT, Km ATP) [nM]
CS(=O)(=O)N1CCC(c2nccc(Nc3cc(N[C@H]4CC[C@@](C)(O)CC4)c(-c4ccn(C(F)F)n4)cn3)n2)CC1 [Example 158, (1s,4s)-4-((5-(1-(Difluoromethyl)-1H-pyrazol-3-yl)-2-((2-(1-(methylsulfonyl)piperidin-4-yl)pyrimidin-4-yl)amino)pyridin-4-yl)amino)-1-methylcyclohexan-1-ol] |  |  |  |  |  | 635 | 450 | 6330 | 9.4 | 110 |  |  |  |  | 
Cn1nc(-c2cnc(Nc3ccnc(-c4cnn(S(=O)(=O)C5CC5)c4)n3)cc2N[C@H]2CC[C@@H](CN3CCC3)CC2)cc1C(F)(F)F [Example 264, N^4-((1s,4s)-4-(Azetidin-1-ylmethyl)cyclohexyl)-N^2-(2-(1-(cyclopropylsulfonyl)-1H-pyrazol-4-yl)pyrimidin-4-yl)-5-(1-methyl-5-(trifluoromethyl)-1H-pyrazol-3-yl)pyridine-2,4-diamine] | 2.2 | 0.9 | 0.6 | 1.4 | 244 |  | 0.4 | 0.8 | 0.4 | 1.7 |  |  |  |  | 
Cc1nn(CC(F)(F)F)cc1-c1nccc(Nc2cc(N[C@H]3CC[C@@H](CCO)CC3)c(-c3ccn(CC(F)F)n3)cn2)n1 [Example 337, 2-((1s,4s)-4-((5-(1-(2,2-Difluoroethyl)-1H-pyrazol-3-yl)-2-((2-(3-methyl-1-(2,2,2-trifluoroethyl)-1H-pyrazol-4-yl)pyrimidin-4-yl)amino)pyridin-4-yl)amino)cyclohexyl)ethan-1-ol] |  |  |  |  |  |  |  |  |  |  | 3.7 | 6.1 | 0.5 | 0.8 | 9
O=S(=O)(C1CC1)n1cc(-c2nccc(Nc3cc(N[C@H]4CC[C@@H](O)CC4)c(-c4ccco4)cn3)n2)cn1 [Example 83, (1s,4s)-4-((2-((2-(1-(Cyclopropylsulfonyl)-1H-pyrazol-4-yl)pyrimidin-4-yl)amino)-5-(furan-2-yl)pyridin-4-yl)amino)cyclohexan-1-ol] | 18 | 1.9 | 0.7 | 0.6 | > 10000 | 8.6 | 0.7 | 0.8 | 0.3 | 0.3 |  |  |  |  | 
CCOC(=O)c1ccn(-c2cnc(Nc3ccnc(-c4cnn(S(=O)(=O)C5CC5)c4)n3)cc2N[C@H]2CC[C@@](C)(O)CC2)n1 [Example 102, Ethyl 1-(6-((2-(1-(cyclopropylsulfonyl)-1H-pyrazol-4-yl)pyrimidin-4-yl)amino)-4-(((1s,4s)-4-hydroxy-4-methylcyclohexyl)amino)pyridin-3-yl)-1H-pyrazole-3-carboxylate] | 123 | 10.6 | 0.6 | 0.4 | > 10000 | 183 | 4.4 | 6.3 | 0.3 | 0.5 |  |  |  |  | 
CS(=O)(=O)N1CC=C(c2nccc(Nc3cc(N[C@H]4CC[C@@](C)(O)CC4)c(-c4ccn(C(F)F)n4)cn3)n2)CC1 [Example 156, (1s,4s)-4-((5-(1-(Difluoromethyl)-1H-pyrazol-3-yl)-2-((2-(1-(methylsulfonyl)-1,2,3,6-tetrahydropyridin-4-yl)pyrimidin-4-yl)amino)pyridin-4-yl)amino)-1-methylcyclohexan-1-ol] |  |  |  |  |  | 986 | 339 | > 10000 | 3.2 | 35.2 |  |  |  |  | 
